Measurements from patent US12173039B1, “TPL2 inhibiting agents, uses thereof, and detection of TPL2” (Washington University, priority 2021, dated 2024).

Columns and labels:
MAPK activity = assay: Immunoblots of MAPK activity in murine PDAC lines KP2 and KI; assay type: cell-based; conditions: 24 hours, serum-free
Description: (§1) Standard immunoblotting procedure was followed. Cells were washed twice with ice-cold 1×PBS and lysed with ice-cold triton-X lysis buffer (25 mM Tris, pH 7.4, 150 mM NaCl, 5 mM EDTA, 1% Triton-X) containing 1× protease (10 μg mL-1 leupeptin, 700 ng mL-1 pepstatin, 170 ng mL-1 aprotinin, 1 mM PMSF) and phosphatase (10 mM NaF, 1 mM Na3VO4, 1 mM Na4P2O^7, 5 mM Na b-glycerophosphate) inhibitors. Lysates were quantified by Bradford assay (Thermo Scientific), normalized for concentration, and reduced and denatured with 6×SDS sample buffer followed by boiling for 5 minutes. 20-40 μg of protein per sample was resolved by SDS-PAGE, blotted on PVDF membrane and probed with primary antibodies (Cell Signaling Technologies: p-ERK1/2 (#4370), p-MEK1/2 (#9154), ERK1/2 (#4695), MEK1/2 (#8727), p-p105 (#4806), NFS2KB1 p105/p50 (#3035), p-IRAK4 (#11927), IRAK4 (#4363), ubiquitin (#43124), anti-HA (#3724), p-p90RSK (#11989), RSK1/2/3 (#9355), p-TPL2 (#4491), PARP (#9532), p-B-RAF S445 (#2696), BRAF (#9433S). Santa Cruz Biotechnology: GAPDH (#sc-32233), p-p65 […] (#sc101752). Thermo Fisher Scientific: p-55 TPL2 (#PA5-36635). EMD Millipore: IRAK4 (#07-418). R&D systems: TPL2/MAP3K8 (#MAB4586). Novus Biologicals: anti-AU1 (#NB600-453). Abcam: p-p65 […] (#ab194726)). […]

p-p105, p-p65 = assay: Immunoblots of NF-κB markers in PDAC cells; assay type: cell-based, human; conditions: Pa01C, Pa02C, Pa03C, and HPAC cells; IRAK4 inhibition
Description: Standard immunoblotting procedure was followed. Cells were washed twice with ice-cold 1×PBS and lysed with ice-cold triton-X lysis buffer (25 mM Tris, pH 7.4, 150 mM NaCl, 5 mM EDTA, 1% Triton-X) containing 1× protease (10 μg mL-1 leupeptin, 700 ng mL-1 pepstatin, 170 ng mL-1 aprotinin, 1 mM PMSF) and phosphatase (10 mM NaF, 1 mM Na3VO4, 1 mM Na4P2O^7, 5 mM Na b-glycerophosphate) inhibitors. Lysates were quantified by Bradford assay (Thermo Scientific), normalized for concentration, and reduced and denatured with 6×SDS sample buffer followed by boiling for 5 minutes. 20-40 μg of protein per sample was resolved by SDS-PAGE, blotted on PVDF membrane and probed with primary antibodies (Cell Signaling Technologies: p-ERK1/2 (#4370), p-MEK1/2 (#9154), ERK1/2 (#4695), MEK1/2 (#8727), p-p105 (#4806), NFS2KB1 p105/p50 (#3035), p-IRAK4 (#11927), IRAK4 (#4363), ubiquitin (#43124), anti-HA (#3724), p-p90RSK (#11989), RSK1/2/3 (#9355), p-TPL2 (#4491), PARP (#9532), p-B-RAF S445 (#2696), BRAF (#9433S). Santa Cruz Biotechnology: GAPDH (#sc-32233), p-p65 S536 (#sc101752). Thermo Fisher Scientific: p-55 TPL2 (#PA5-36635). EMD Millipore: IRAK4 (#07-418). R&D systems: TPL2/MAP3K8 (#MAB4586). Novus Biologicals: anti-AU1 (#NB600-453). Abcam: p-p65 S276 (#ab194726)). Membranes were incubated with appropriate HRP-conjugated secondary antibodies (anti-mouse or anti-rabbit, (1:5000 dilution), Jackson Laboratory) and imaged using chemiluminescent substrate. Additional steps for immunoprecipitation include incubation of soluble fraction lysate with anti-HA magnetic beads (Thermo Scientific cat #88837) overnight at 4° C., washing, and elution using 1×SDS sample buffer and boiling as mentioned in manufacturer's protocol.

p-TPL2 = assay: Immunoblot of activated ectopic TPL2 (anti-p-TPL2 antibody); assay type: cell-based, human; conditions: Pa01C and HPAC cells overexpressing TPL2
Description: as §1

[1] = tested on: serum-response element (SRE); assay: Serum-response element (SRE) luciferase reporter assay; assay type: cell-based, human; conditions: HPAC cells
Description: (§2) Cells stably expressing plasmid encoding serum-response-element (SRE) or NFKB promoter driven Firefly luciferase and constitutive Renilla luciferase were seeded at equal density per well and treatment was initiated the next day for 16-24 duration. Alternatively, 293T reporter cells were transfected in duplicate or triplicate with 1 μg of appropriate plasmid DNA. Medium was replaced 16-18 hours later and at 48 hours post-transfection reporter activity was measured using Dual-Glo® Luciferase Assay System. Data was acquired using SpectraMax i3Microplate Reader and analysis was performed by calculating ratio of firefly:renilla. Values were normalized to control and graphed using GraphPad Prism v7/8 software.

NF-κB reporter activity = assay: NF-κB luciferase reporter assay; assay type: cell-based, human; conditions: KRAS-mutant PDAC cells (PANC-1); serial dilutions from 20 μM; 18 hours
Description: as §2

KRAS-mutant PDAC lines = assay: Drug response and viability assay (AlamarBlue), PDAC lines; assay type: cell-based, human; conditions: various KRAS-mutant PDAC lines; 5 and 7 days
Description: Cells were seeded at 1500-2500 cells per well in triplicates, in 96 well format. Next day, appropriate inhibitor was added in serial dilution from 1.00×102 μM or indicated single doses. Vehicle (DMSO) was added to match volume of inhibitor used for highest concentration. […] Fluorescence at 585 nm (excitation 555 nm) was measured by SpectraMax i3 Microplate Reader. Raw values were normalized to vehicle, analyzed and graphed using GraphPad Prism v7/8 software.

HEK T/tH-KRAS^G12V cells = assay: Drug response and viability assay, HEK T/tH-KRAS^G12V with or without MEK1-5DD; assay type: cell-based, human; conditions: 96 hours, GI50
Description: Cells were seeded at 1500-2500 cells per well in triplicates, in 96 well format. Next day, appropriate inhibitor was added in serial dilution from 1.00×102 μM or indicated single doses. Vehicle (DMSO) was added to match volume of inhibitor used for highest concentration. After 96-120 hours, 5× AlamarBlue® reagent (resazurin sodium salt, Sigma) was added to wells and incubated for 2-4 hours. Fluorescence at 585 nm (excitation 555 nm) was measured by SpectraMax i3 Microplate Reader. Raw values were normalized to vehicle, analyzed and graphed using GraphPad Prism v7/8 software.

MAPK activity (immunoblot) (MAPK activity): dose-dependently suppressed | SRE-driven luciferase reporter activity [1]: dose-dependently reduced | NF-κB reporter activity (NF-κB reporter activity): dose-dependently suppressed
SMILES: CC[C@@H]1[C@H](F)C(=O)N[C@@H]1COc1nccc2cc(C(N)=O)c(OC)cc12 [PF06650833, 1-(((2S,3S,4S)-3-ethyl-4-fluoro-5-oxopyrrolidin-2-yl)methoxy)-7-methoxyisoquinoline-6-carboxamide]
p-p105 levels (p-p105, p-p65): suppresses | activated state of ectopically expressed TPL2 (p-TPL2) (p-TPL2): dose-dependently deactivated | viability (KRAS-mutant PDAC lines): dose-dependently reduced | loss of sensitivity to growth inhibition on expression of MEK1-5DD (HEK T/tH-KRAS^G12V cells): approximately 3 fold
